Test results taken from patent US6610744B2, “Methods of treatment with compounds having RARα receptor specific or selective activity” (Allergan, Inc., priority 1995, dated 2003).

How the values were obtained:
[1] = Weight loss in rats treated for 3 days; format: in vivo, rat
Description: Weight loss or gain that experimental animals experience upon administration of retinoid compounds is another test of the drug's toxicity, with significant weight loss at relatively low doses indicating a significant toxic side effect of the retinoid. In one experiment, groups of 5 rats were treated with varying doses (administered in corn oil) of a test retinoid for 3 days. The rats were euthanized 24 hours after the last dose.

RXRβ = target: T1, RXRβ (Homo sapiens, UniProt P28702); test: Ligand binding assay, RXRβ
T1 construct: made in house; host or cells: Baculovirus expression (insect cell extract)
T1 sequence (P28702 1-533): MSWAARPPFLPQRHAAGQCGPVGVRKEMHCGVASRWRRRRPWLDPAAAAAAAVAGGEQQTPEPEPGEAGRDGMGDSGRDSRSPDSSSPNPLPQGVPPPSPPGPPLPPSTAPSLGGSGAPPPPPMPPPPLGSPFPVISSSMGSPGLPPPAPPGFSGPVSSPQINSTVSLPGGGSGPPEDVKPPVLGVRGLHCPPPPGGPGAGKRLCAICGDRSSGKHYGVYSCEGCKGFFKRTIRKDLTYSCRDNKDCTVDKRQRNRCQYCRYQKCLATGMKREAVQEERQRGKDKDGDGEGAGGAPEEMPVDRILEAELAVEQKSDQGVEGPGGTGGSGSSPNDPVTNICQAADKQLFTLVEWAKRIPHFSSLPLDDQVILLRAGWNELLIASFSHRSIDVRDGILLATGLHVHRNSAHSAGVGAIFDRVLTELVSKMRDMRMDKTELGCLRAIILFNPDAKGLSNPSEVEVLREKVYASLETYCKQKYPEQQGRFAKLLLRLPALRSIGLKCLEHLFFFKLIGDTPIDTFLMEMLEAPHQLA
Description: (§1) All binding assays were performed in a similar fashion. All six receptor types were derived from the expressed receptor type (RARα, β, Γ and RXRα, β, Γ) expressed in Baculovirus. Stock solutions of all compounds were prepared as 10 mM ethanol solutions and serial dilutions carried out into 1:1 DMSO; ethanol. Assay buffers consisted of the following for all six receptor assays: 8% glycerol, 120 mM KCl 8 mM Tris, 5 mM CHAPS 4 mM DTT and 0.24 mM PMSF, pH-7.4@ room temperature.
(§2) All receptor binding assays were performed in the same manner. The final assay volume was 250 μl and contained from 10-40 μg of extract protein depending on receptor being assayed along with 5 nM of [^3H] all-trans retinoic acid or 10 nM [^3H] 9-cis retinoic acid and varying concentrations of competing ligand at concentrations that ranged from 0-10^−5 M. The assays were formatted for a 96 well minitube system. Incubations were carried out at 4° C. until equilibrium was achieved. Non-specific binding was defined as that binding remaining in the presence of 1000 nM of the appropriate unlabeled retinoic acid isomer. At the end of the incubation period, 50 μl of 6.25% hydroxyapitite was added in the appropriate wash buffer. The wash buffer consisted of 100 mM KCl, 10 mM Tris and either 5 mM CHAPS (RXRα, β, Γ) or 0.5% Triton X-100 (RARα, β, Γ). The mixture was vortexed and incubated for 10 minutes at 4° C., centrifuged and the supernatant removed. The hydroxyapitite was washed three more times with the appropriate wash buffer. The receptor-ligand complex was adsorbed by the hydroxyapitite. The amount of receptor-ligand complex was determined by liquid scintillation counting of hydroxyapitite pellet.
(§3) After correcting for non-specific binding, IC50 values were determined. […] The IC50 value was determined graphically from a loglogit plot of the data. The […] were determined by application of the Cheng-Prussof equation to the IC50 values, the labeled ligand concentration and the Kd of the labeled ligand.
(§4) The results of ligand binding assay are expressed in Kd numbers. (See Cheng et al. Biochemical Pharmacology Vol. 22 pp 3099-3108, expressly incorporated herein by reference.)

RXRΓ = target: T2, RXRΓ (Homo sapiens, UniProt P48443); test: Ligand binding assay, RXRΓ
T2 construct: made in house; host or cells: Baculovirus expression (insect cell extract)
T2 sequence (P48443 1-463): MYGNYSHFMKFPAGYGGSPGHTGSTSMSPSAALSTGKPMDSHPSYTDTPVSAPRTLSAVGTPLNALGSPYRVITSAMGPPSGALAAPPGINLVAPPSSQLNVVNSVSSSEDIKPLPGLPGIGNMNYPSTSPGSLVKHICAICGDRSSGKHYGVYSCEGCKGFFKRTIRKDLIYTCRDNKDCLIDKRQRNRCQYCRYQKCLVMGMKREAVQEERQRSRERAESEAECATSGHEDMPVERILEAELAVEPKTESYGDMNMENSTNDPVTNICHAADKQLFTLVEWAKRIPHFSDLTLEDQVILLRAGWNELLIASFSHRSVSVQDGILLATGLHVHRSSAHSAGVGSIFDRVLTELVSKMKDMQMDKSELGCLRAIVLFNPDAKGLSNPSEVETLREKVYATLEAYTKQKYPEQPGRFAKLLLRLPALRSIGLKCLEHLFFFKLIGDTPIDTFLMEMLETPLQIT
Description: as §1, §2, §3, §4

CC(C)(C)c1cc(C(=O)Nc2ccc(C(=O)O)c(F)c2)cc(C(C)(C)C)n1 [Compound 42]
mucocutaneous toxicity ([1]; rats, 10, 30 and 90 μmol/kg/day for 3 days): significant mucocutaneous toxicity was not observed
weight loss compared to control ([1]; rats, daily doses up to 90 μmol/kg/day in corn oil for 3 days, FIG. 6, FIG. 7): virtually no weight loss, as compared to the control, except in a very high dose (90 μmol/kg/day)
Kd (RXRβ): > 1 µM
Kd (RXRΓ): > 1 µM
